These results are taken from US4279994A (priority 1979, dated 1981).

Holding throughout (format): biochemical
One test addresses acetyl cholinesterase (Homo sapiens, UniProt P22303).
In the next test the target is T1, pseudocholinesterase (Homo sapiens, UniProt P06276).
T1 construct: hydrolysis of S-acyl substrate (BALB) with chromogenic sulfhydryl reagent
The test can be described thus: Eserine salicylate added to fresh human serum specimens, absorbance change between 10 and 30 minutes incubation (Example 4). The settings on record: for Absorbance change: 10 to 30 minutes incubation.

In another test the test system is lipase. As to the kind of experiment: Effect on lipase under the test conditions.
The target in the next test is butyryl cholinesterase (Homo sapiens, UniProt P06276).
Sequence of butyryl cholinesterase (P06276 29-602): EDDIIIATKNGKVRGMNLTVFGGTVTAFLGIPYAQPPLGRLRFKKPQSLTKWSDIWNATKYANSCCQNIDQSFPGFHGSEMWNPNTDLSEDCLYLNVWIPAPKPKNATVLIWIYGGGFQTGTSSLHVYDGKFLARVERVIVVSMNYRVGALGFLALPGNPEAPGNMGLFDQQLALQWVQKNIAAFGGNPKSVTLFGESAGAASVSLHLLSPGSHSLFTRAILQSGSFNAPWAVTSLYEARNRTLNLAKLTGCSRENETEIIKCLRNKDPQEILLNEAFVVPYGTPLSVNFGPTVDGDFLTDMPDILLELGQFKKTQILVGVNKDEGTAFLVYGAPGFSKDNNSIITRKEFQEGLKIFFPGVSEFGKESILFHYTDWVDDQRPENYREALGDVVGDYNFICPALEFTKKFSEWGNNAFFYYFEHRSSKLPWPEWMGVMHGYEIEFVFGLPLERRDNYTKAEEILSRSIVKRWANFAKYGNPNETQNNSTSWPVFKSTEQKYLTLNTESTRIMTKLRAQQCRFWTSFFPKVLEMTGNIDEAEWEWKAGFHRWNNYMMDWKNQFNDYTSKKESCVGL
Test [1] addresses T2, human serum containing naturally occurring pseudocholinesterases (Homo sapiens, UniProt P06276).
T2 construct: human serum containing naturally occurring pseudocholinesterases; from tissue; host or cells: human serum (Serum A, Serum B)

The nature of test [2]: Reagent without lipase and without eserine salt, used to assay cholinesterase solutions (Example 4). The settings on record: 1.17 units of acetyl cholinesterase or 0.36 units of butyryl cholinesterase; no lipase and no eserine salt. The protocol:
The four-reagent kit of Example 1 is utilized as follows, using duplicate specimen vials labelled "Patient-Blank", "Patient", "Blank 10 Minutes" and "Blank 30 Minutes", and the following procedure.
The activity of serum lipase is proportional to the absorbance at 412 nanometers, and is calculated as follows:
Lipase activity per 20 minutes= Absorbance [patient vial-Blank vial] (30 minutes) -Absorbance [patient vial-Blank vial] (10 minutes)
A reagent composition is formulated to contain the following: […]
Final pH about 8.8. Using a procedure similar to that of Example 2, the reagent was used to assay solutions containing 1.17 units of acetyl cholinesterase (a true cholinesterase) or 0.36 units of butyryl cholinesterase (a pseudocholinesterase). Acetyl cholinesterase produced an absorbance change of 0.011 absorbance units and butyryl cholinesterase produced a change of 0.421 absorbance units.

Structures can show the parent of a compound that is named as a salt. Where two headings read alike, the source gives them in different places.

T2 sequence (P06276 29-602): as above
T1 sequence (P06276 29-602): as above
Sequence of acetyl cholinesterase (P22303 32-614): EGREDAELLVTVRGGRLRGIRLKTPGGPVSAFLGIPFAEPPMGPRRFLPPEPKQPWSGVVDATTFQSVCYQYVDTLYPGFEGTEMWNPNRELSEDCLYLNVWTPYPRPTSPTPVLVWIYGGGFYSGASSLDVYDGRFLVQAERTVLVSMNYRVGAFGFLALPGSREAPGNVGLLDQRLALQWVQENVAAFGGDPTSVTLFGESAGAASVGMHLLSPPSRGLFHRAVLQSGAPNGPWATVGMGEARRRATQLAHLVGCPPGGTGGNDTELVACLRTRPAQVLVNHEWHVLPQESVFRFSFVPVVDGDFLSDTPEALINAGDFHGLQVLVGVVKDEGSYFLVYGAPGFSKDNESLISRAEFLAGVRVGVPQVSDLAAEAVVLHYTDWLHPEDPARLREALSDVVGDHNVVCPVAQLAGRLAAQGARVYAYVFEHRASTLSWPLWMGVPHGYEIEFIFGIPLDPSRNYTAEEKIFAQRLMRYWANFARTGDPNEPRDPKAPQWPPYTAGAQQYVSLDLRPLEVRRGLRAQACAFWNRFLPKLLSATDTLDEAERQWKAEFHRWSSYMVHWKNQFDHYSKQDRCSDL

With `CNC(=O)Oc1ccc2c(c1)[C@]1(C)CCN(C)[C@@H]1N2C` [Eserine Salicylate, Eserine salicylate], the “Activity, Acetyl Cholinesterase” value on acetyl cholinesterase is on record as 0.027 ΔAbsorbance per 20 minutes incubation. Besides, the “specificity for serum pseudocholinesterase” value at pseudocholinesterase was “highly specific for serum pseudocholinesterase”. The “improvement with increasing inhibitor concentration” value at pseudocholinesterase (concentrations increasing from 0.02 to 0.05 millimolar) is “little or no improvement”. Also, the “inhibition of pseudocholinesterase (in words)” value at pseudocholinesterase (fresh human serum, Example 4) is “inhibition of pseudocholinesterase”. The Absorbance change on pseudocholinesterase (fresh human serum, 5 microliters (0.005 millimolar) of 1 millimolar eserine salicylate added) is given as 0.501; on pseudocholinesterase (fresh human serum, 10 microliters of 1 millimolar eserine salicylate added), 0.495; at pseudocholinesterase (fresh human serum, 20 microliters of 1 millimolar eserine salicylate added), 0.475; at pseudocholinesterase (fresh human serum, 30 microliters of 1 millimolar eserine salicylate added), 0.490; at pseudocholinesterase (fresh human serum, 40 microliters of 1 millimolar eserine salicylate added), 0.496; on pseudocholinesterase (fresh human serum, 50 microliters of 1 millimolar eserine salicylate added), 0.492. Besides, the inhibition of lipase result in the test with lipase is listed as “does not inhibit lipase”. For the same compound, the “Activity, Butyryl Cholinesterase” value on butyryl cholinesterase is reported as 0.182 ΔAbsorbance per 20 minutes incubation. Besides, the “inhibition of BALB hydrolysis by pseudocholinesterase (in words)” value on butyryl cholinesterase is “significant inhibition”. Also, in test [1], the “Activity, Serum A” value is on record as 0.078 ΔAbsorbance per 20 minutes incubation. Also, in test [1], the “Activity, Serum B” value is on record as 0.092 ΔAbsorbance per 20 minutes incubation.
Take `CN(C)C(=O)Oc1cccc([N+](C)(C)C)c1` [Neostigmine Methyl Sulfate, neostigmine methylsulfate]: at acetyl cholinesterase, the “Activity, Acetyl Cholinesterase” value is listed as 0.025 ΔAbsorbance per 20 minutes incubation. For the same compound, at butyryl cholinesterase, the “Activity, Butyryl Cholinesterase” value is 0.187 ΔAbsorbance per 20 minutes incubation and the “inhibition of BALB hydrolysis by pseudocholinesterase (in words)” value is reported as “significant inhibition”. Besides, in test [1], the “Activity, Serum A” value is listed as 0.098 ΔAbsorbance per 20 minutes incubation and the “Activity, Serum B” value is given as 0.081 ΔAbsorbance per 20 minutes incubation.
For `O=S(=O)(F)Cc1ccccc1` [PMSF, phenyl methyl sulfonyl fluoride], at acetyl cholinesterase (50 microliters of acetyl cholinesterase, 10.4 units per ml, Neostigmine Methyl Sulfate 0.037 mM, PMSF 0.37 mM), the “Activity, Acetyl Cholinesterase” value is 0.021 ΔAbsorbance per 20 minutes incubation. At butyryl cholinesterase (50 microliters of butyryl cholinesterase, 7.2 units per ml, Eserine Salicylate 0.037 μm, Neostigmine Methyl Sulfate 0.037 mM, PMSF 0.37 mM), the “Activity, Butyryl Cholinesterase” value is recorded as 0.338 ΔAbsorbance per 20 minutes incubation. Also, the “Activity, Serum A” value in test [1] (50 microliters of human Serum A, Eserine Salicylate 0.037 μm, Neostigmine Methyl Sulfate 0.037 mM, PMSF 0.37 mM) is reported as 0.487 ΔAbsorbance per 20 minutes incubation. Besides, the “Activity, Serum B” value in test [1] (50 microliters of human Serum B, Eserine Salicylate 0.037 μm, Neostigmine Methyl Sulfate 0.037 mM, PMSF 0.37 mM) is listed as 0.383 ΔAbsorbance per 20 minutes incubation. For the same compound, in test [1] (serum samples, without pseudocholinesterase inhibitor), the “effect in inhibiting the interfering hydrolysis of the S-acyl compound (in words)” value was “little or no effect”.
With Acetyl cholinesterase, in test [2], the Absorbance change amounted to 0.011 absorbance units.
